ChEMBL document CHEMBL2321754, “Novel small molecule protein arginine deiminase 4 (PAD4) inhibitors” (Bioorg Med Chem Lett, 2013)

Tests used:
[1] = target: Carbonic anhydrase 9 (Homo sapiens, UniProt Q16790)
Description: Inhibition of human CA9 by stopped-flow assay

[2] = target: Carbonic anhydrase 12 (Homo sapiens, UniProt O43570); assay: Inhibition of human CA12 by stopped-flow assay
[3] = target: Carbonic anhydrase 2 (Homo sapiens, UniProt P00918); assay: Inhibition of human CA2 by stopped-flow assay
[4] = target: Carbonic anhydrase 1 (Homo sapiens, UniProt P00915); assay: Inhibition of human CA1 by stopped-flow assay
Carbonic anhydrase 1, sequence (P00915 whole entry): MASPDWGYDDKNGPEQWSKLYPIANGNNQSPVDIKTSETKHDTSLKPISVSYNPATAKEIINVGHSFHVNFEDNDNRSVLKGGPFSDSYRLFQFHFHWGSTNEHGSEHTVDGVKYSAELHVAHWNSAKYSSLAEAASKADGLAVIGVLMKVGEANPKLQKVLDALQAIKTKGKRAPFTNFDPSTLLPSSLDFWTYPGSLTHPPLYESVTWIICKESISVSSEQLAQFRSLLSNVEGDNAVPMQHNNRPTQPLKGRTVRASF

Carbonic anhydrase 12, sequence (O43570 whole entry): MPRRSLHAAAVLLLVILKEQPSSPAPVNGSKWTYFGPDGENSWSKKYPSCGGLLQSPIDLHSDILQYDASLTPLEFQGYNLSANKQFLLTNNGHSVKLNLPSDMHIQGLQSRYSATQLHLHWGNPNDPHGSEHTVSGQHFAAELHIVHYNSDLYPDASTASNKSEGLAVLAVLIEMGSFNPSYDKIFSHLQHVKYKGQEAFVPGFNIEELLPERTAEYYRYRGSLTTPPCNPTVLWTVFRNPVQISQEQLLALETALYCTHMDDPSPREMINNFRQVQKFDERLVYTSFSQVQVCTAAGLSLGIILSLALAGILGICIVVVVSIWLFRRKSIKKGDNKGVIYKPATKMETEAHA

Ki [1]	Ki [2]	Ki [3]	Ki [4]	SMILES
4.13 µM	14.6 µM	7.51 µM	8.34 µM	N=C(N)Nc1ccc(O)cc1
2.56 µM	0.48 µM	1.15 µM	0.63 µM	N=C(N)Nc1ccc(C(=O)O)cc1 [4-GUANIDINO-BENZOIC ACID]

SMILES	Ki [1]	Ki [2]	Ki [3]	Ki [4]
N=C(N)NCCc1ccc(S(N)(=O)=O)cc1	0.034 µM	0.014 µM	0.089 µM	0.24 µM
